Data from US9139809B2, “Bacterial vaccines with cell wall-associated ceramide-like glycolipids and uses thereof” (priority 2009, dated 2015).

Legend:
[1] = system: tumor and malaria; settings: mice; cited from earlier work
[2] = system: serum cytokines; settings: mice, cited from earlier work
[3] = system: M. tuberculosis H37Rv; settings: in vivo
[4] = system: M. tuberculosis; settings: αGalCer as a therapeutic; cited from earlier work
[5] = system: malarial parasite; settings: mice, αGalCer as a therapeutic; cited from earlier work

| SMILES | anti-tumor and anti-malarial activity compared with αGalCer [1] | levels of Th1 cytokines IL-12 and IFNγ ([2]; compared with αGalCer) | improvement of the protective efficacy of BCG, comparison of the two glycolipids [3] | serum cytokines after a single injection (IFNγ, IL-12 and IL-4) ([2]; single injection) | survival of M. tuberculosis infected mice [4] | malarial parasite load [5] |
| --- | --- | --- | --- | --- | --- | --- |
| CCCCCCCCCCCCCCCCCCCCCCCCCC(=O)N[C@@H](CCC1OC(CO)C(O)C(O)C1O)[C@H](O)[C@H](O)CCCCCCCCCCCCCC (stereo partly drawn) [α-C-GalCer, (2S,3S,4R)-1-CH2-(α-galactopyranosyl)-N-hexacosanoyl-2-amino-1,3,4-octadecanetriol] | superior anti-tumor and anti-malarial activity as compared to αGalCer | induces higher levels | superior to αGalCer |  |  |  |
| CCCCCCCCCCCCCCCCCCCCCCCCCC(=O)N[C@@H](CO[C@H]1O[C@H](CO)[C@H](O)[C@H](O)[C@H]1O)[C@H](O)[C@H](O)CCCCCCCCCCCCCC [αGalCer, (2S,3S,4R)-1-O-(α-D-galactopyranosyl)-N-hexacosanoyl-2-amino-1,3,4-octadecanetriol] |  |  |  | induces a cytokine storm in the serum | prolong the survival | reduce malarial parasite load |
